Patent US20260083865A1, “PROSTATE SPECIFIC MEMBRANE ANTIGEN (PSMA) LIGANDS AND USE THEREOF” (priority 2022, published 2026)
Where two headings read alike, the source gives them in different places. One block for each molecule: values may come before it. Numbered stars: 1 amine (or outer) side, 2 acyl side, 3 side chain; on linkers, the order of the positions; unused ones are H or OH. Bridge positions count the residues as written; N and C are the ends. Square brackets hold non-standard residues; d marks the D form. Side chains are listed from the residue outwards. Peptide text beside a SMILES is read from it. * marks the point of attachment. X3 = O=C(O)CN1CCN(CC(=O)O)CCN(CC(=O)NCCCOCCOCCOCCCN*)CCN(CC(=O)O)CC1; X12 = O=C(O)CN1CCOCCN(CC(=O)O)CCN(CC(=O)*)CCOCCN(CC(=O)O)CC1; DOTA = O=C(O)CN1CCN(CC(=O)O)CCN(CC(=O)*)CCN(CC(=O)O)CC1; Arg(NO2) = N=C(NCCC[C@H](N)C(=O)O)N[N+](=O)[O-]; X16 = CNC(=N)N(C)CCC[C@H](N[*:1])C(=O)[*:2]; Phe(4-Cl) = N[C@@H](Cc1ccc(Cl)cc1)C(=O)O; Phe(3-Me) = Cc1cccc(C[C@H](N)C(=O)O)c1; Arg(Me) = CNC(=N)NCCC[C@H](N)C(=O)O; Ethylenediamine = C(CN[*:2])N[*:1]; X4 = O=C(CN1CCC(N[*:1])CC1)[*:2]; X1 = O=C(CC1CCN([*:1])CC1)[*:2]; Lys(Me) = CNCCCC[C@H](N)C(=O)O; Suc = O=C(CCC(=O)[*:2])[*:1]; Tle = CC(C)(C)[C@H](N)C(=O)O; Nle = CCCC[C@H](N)C(=O)O; Aib = CC(C)(N)C(=O)O; Bn = c1ccc(C*)cc1

Legend:
[1] = biological target: T1, Fc-fusion protein of human PSMA (hPSMA-Fc) (Homo sapiens, UniProt Q04609); assay: Surface plasmon resonance assay (Biacore T200, single cycle kinetic); type: binding; conditions: read-out: pKD CAT (converted)
T1 construct: purchased Acro Biosystems PSA-H5264
Summary of the method: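 KD, expressed as pKD, came from 1:1 Langmuir fits of reference- and buffer-blank-subtracted SPR data. The runs were single-cycle kinetics at 25° C in HBST/0.1% DMSO over human PSMA-Fc, captured to ~1000 RU on a peptide-coated CM5 surface and regenerated with 10 mM glycine pH 1.5.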

[2] = biological target: T2, PSMA-expressing C4-2 cells (Homo sapiens, UniProt Q04609); assay: FACS binding assay (competition with 50 nM PSM-0183); conditions: read-out: pIC50 [C4-2] CAT (converted)
T2 construct: PSMA-expressing C4-2 cells (ATCC, Cat. No. CRL-3314) were cultured in RPMI-1640; host or cells: C4-2 cells
Summary of the method: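 Competition format: fluorescent tracer PSM-0183 (50 nM) displaced from PSMA on C4-2 cells by a test compound titration over 1 h at 4 °C. Bound tracer was quantified as flow-cytometric AF488 median fluorescence after washing. Four-parameter logistic fits of MFI data gave IC50 and pIC50.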

[3] = pKD category for PSMA SPR activity assay, hPSMA-Fc, 25° C.
[4] = pIC50 category of FACS binding, C4-2 cells
[5] = FACS binding, C4-2 cells, category
[6] = SPR, hPSMA-Fc, single cycle kinetic, 25° C., category
[7] = FACS binding, C4-2 cells, competition with 50 nM PSM-0183, category
[8] = PSMA SPR assay, hPSMA-Fc, 25° C., pKD category
[9] = FACS binding, PSMA-expressing C4-2 cells, pIC50 category

T1 sequence (Q04609 44-750 limits assumed): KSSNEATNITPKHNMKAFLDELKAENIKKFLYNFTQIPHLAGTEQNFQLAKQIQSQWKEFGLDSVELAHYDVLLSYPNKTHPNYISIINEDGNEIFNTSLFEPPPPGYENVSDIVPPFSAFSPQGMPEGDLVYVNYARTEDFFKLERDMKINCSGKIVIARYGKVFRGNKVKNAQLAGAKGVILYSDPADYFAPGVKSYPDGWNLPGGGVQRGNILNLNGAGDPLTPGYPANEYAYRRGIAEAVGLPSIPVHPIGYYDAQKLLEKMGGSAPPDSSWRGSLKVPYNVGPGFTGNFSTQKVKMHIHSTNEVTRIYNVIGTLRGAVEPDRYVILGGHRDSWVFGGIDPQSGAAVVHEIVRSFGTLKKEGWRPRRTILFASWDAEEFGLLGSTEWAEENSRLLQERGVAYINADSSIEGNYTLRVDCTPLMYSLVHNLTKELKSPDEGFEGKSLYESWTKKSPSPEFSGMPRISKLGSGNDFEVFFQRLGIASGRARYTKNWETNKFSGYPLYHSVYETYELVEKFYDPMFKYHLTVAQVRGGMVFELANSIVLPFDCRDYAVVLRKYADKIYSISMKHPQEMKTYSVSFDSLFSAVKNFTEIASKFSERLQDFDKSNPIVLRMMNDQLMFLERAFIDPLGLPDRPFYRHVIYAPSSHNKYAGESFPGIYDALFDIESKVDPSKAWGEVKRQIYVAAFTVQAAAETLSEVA
T2 sequence (Q04609 whole entry): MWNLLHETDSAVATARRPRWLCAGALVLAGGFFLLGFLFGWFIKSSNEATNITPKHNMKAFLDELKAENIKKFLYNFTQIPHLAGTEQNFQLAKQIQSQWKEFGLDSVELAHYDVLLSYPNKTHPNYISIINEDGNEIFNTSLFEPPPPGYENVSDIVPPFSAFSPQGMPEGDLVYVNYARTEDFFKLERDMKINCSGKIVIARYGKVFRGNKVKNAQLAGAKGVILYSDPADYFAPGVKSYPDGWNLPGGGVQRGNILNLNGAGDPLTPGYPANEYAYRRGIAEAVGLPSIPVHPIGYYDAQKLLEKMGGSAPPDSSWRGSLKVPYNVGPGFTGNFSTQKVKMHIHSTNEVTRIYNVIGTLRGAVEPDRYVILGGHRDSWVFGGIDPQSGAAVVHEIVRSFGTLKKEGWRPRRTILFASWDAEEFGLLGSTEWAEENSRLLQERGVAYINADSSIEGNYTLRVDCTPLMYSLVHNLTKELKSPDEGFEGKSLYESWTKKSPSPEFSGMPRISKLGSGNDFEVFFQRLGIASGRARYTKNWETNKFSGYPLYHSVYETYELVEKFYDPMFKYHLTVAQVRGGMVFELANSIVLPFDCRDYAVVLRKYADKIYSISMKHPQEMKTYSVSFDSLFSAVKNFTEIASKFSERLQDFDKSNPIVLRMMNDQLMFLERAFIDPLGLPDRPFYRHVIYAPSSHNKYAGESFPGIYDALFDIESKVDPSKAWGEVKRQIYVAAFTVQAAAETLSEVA

SMILES: CC(=O)N[C@H](C(=O)NC(C)(C)C(=O)N[C@@H](Cc1ccccc1)C(=O)N[C@H]1CSSC[C@@H](C(=O)N[C@H](C(=O)N[C@H](C(=O)N[C@@H](CC(=O)O)C(N)=O)[C@@H](C)O)C(C)(C)C)NC(=O)[C@H](CC(N)=O)NC(=O)[C@H](CCCCNC(=O)CCC(=O)NCCCOCCOCCOCCCNC(=O)CN2CCN(CC(=O)O)CCN(CC(=O)O)CCN(CC(=O)O)CC2)NC(=O)[C@H](CCCNC(=N)N)NC(=O)[C@H](CCCCN)NC1=O)[C@@H](C)O [PSM-0542, Ac-Thr-Aib-Phe-[Cys-Lys-Arg-Lys(DOTA-Ttds)-Asn-Cys]-Tle-Thr-Asp-NH2] (Ac-T[Aib]FCKRK([Suc-X3])NC[Tle]TD-NH2; disulfide 4-9)
Kd [1, 3]: < 0.0126 µM
IC50 [2, 4]: < 0.2 µM

SMILES: CCCC[C@H](NC(=O)[C@@H]1CSSC[C@H](NC(=O)[C@H](Cc2ccccc2)NC(=O)[C@H](C)NC(=O)[C@@H](NC(C)=O)[C@@H](C)O)C(=O)N[C@@H](CCCCN)C(=O)N2CCC[C@H]2C(=O)N[C@@H](C)C(=O)N[C@@H](CC(N)=O)C(=O)N1)C(=O)N[C@H](C(=O)N[C@@H](CC(=O)O)C(N)=O)[C@@H](C)O [PSM-0564, Ac-Thr-Als-Phe-[Cys-Lys-Pro-Ala-Asn-Cys]-Nle-Thr-Asp-NH2] (Ac-TAFCKPANC[Nle]TD-NH2; disulfide 4-9)
Kd ([1]; PSMA SPR assay, category): > 0.501 µM
IC50 [2, 5]: > 3.16 µM

SMILES: CNCCCC[C@@H]1NC(=O)[C@@H](NC(=O)[C@H](Cc2cccc(C)c2)NC(=O)C(C)(C)NC(=O)[C@@H](NC(=O)CC2CCN(C(=O)CN3CCN(CC(=O)O)CCN(CC(=O)O)CCN(CC(=O)O)CC3)CC2)[C@@H](C)O)CSSC[C@@H](C(=O)N[C@H](C(N)=O)C(C)(C)C)NC(=O)[C@H](CC(N)=O)NC(=O)C(C)(C)NC(=O)[C@H](CCCNC(=N)NC)NC1=O [PSM-0503, DOTA-Cmp-Thr-Aib-Mmf-[Cys-Lys(Me)-Arg(Me)-Aib-Asn-Cys]-Tle-NH2] ({DOTA}-[X1]T[Aib][Phe(3-Me)]C[Lys(Me)][Arg(Me)][Aib]NC[Tle]-NH2; disulfide 5-10)
Kd [1, 3]: 0.0126 to 0.126 µM
IC50 [2, 4]: < 0.2 µM

SMILES: C[C@@H](O)[C@H](NC(=O)[C@@H](NC(=O)[C@@H]1CSSC[C@H](NC(=O)[C@H](Cc2ccccc2)NC(=O)C(C)(C)NC(=O)[C@@H](NC(=O)CN2CCC(NC(=O)CN3CCN(CC(=O)O)CCN(CC(=O)O)CCN(CC(=O)O)CC3)CC2)[C@@H](C)O)C(=O)N[C@@H](CCCCN)C(=O)N[C@@H](CCCNC(=N)N)C(=O)NC(C)(C)C(=O)N[C@@H](CC(N)=O)C(=O)N1)C(C)(C)C)C(N)=O [PSM-0543, DOTA-APAc-Thr-Aib-Phe-[Cys-Lys-Arg-Aib-Asn-Cys]-Tle-Thr-NH2] ({DOTA}-[X4]T[Aib]FCKR[Aib]NC[Tle]T-NH2; disulfide 5-10)
Kd [1, 3]: < 0.0126 µM
IC50 [2, 4]: < 0.2 µM

SMILES: CCCC[C@@H]1NC(=O)[C@H](CCCCN)NC(=O)[C@@H](NC(=O)[C@H](Cc2ccc(Cl)cc2)NC(=O)C(C)(C)NC(=O)[C@@H](NC(C)=O)[C@@H](C)O)CSSC[C@@H](C(=O)N[C@H](C(=O)N[C@H](C(N)=O)[C@@H](C)O)C(C)(C)C)NC(=O)[C@H](CC(N)=O)NC(=O)C(C)(C)NC1=O [PSM-0338, Ac-Thr-Aib-Pcf-[Cys-Lys-Nle-Aib-Asn-Cys]-Tle-Thr-NH2] (Ac-T[Aib][Phe(4-Cl)]CK[Nle][Aib]NC[Tle]T-NH2; disulfide 4-9)
Kd [1, 8]: < 0.0126 µM
IC50 [2, 9]: < 0.2 µM

SMILES: CNCCCC[C@@H]1NC(=O)[C@@H](NC(=O)[C@H](Cc2ccc(Cl)cc2)NC(=O)C(C)(C)NC(=O)[C@@H](NC(=O)CC2CCN(C(=O)CN3CCN(CC(=O)O)CCN(CC(=O)O)CCN(CC(=O)O)CC3)CC2)[C@@H](C)O)CSSC[C@@H](C(=O)N[C@H](C(=O)N[C@H](C(N)=O)[C@@H](C)O)C(C)(C)C)NC(=O)[C@H](CC(N)=O)NC(=O)C(C)(C)NC(=O)[C@H](CCCN(C)C(=N)NC)NC1=O [PSM-0590, DOTA-Cmp-Thr-Aib-Pcf-[Cys-Lys(Me)-RMe2a-Aib-Asn-Cys]-Tle-Thr-NH2] ({DOTA}-[X1]T[Aib][Phe(4-Cl)]C[Lys(Me)][X16][Aib]NC[Tle]T-NH2; disulfide 5-10)
Kd ([1]; PSMA SPR assay, category): < 0.0126 µM
IC50 [2, 5]: < 0.2 µM

SMILES: CNCCCC[C@@H]1NC(=O)[C@@H](NC(=O)[C@H](Cc2ccc(Cl)cc2)NC(=O)C(C)(C)NC(=O)[C@@H](NC(=O)CC2CCN(C(=O)CN3CCOCCN(CC(=O)O)CCN(CC(=O)O)CCOCCN(CC(=O)O)CC3)CC2)[C@@H](C)O)CSSC[C@@H](C(=O)N[C@H](C(=O)N[C@H](C(N)=O)[C@@H](C)O)C(C)(C)C)NC(=O)[C@H](CC(N)=O)NC(=O)C(C)(C)NC(=O)[C@H](CCCNC(=N)NC)NC1=O [PSM-0495, Crown-Cmp-Thr-Aib-Pcf-[Cys-Lys(Me)-Arg(Me)-Aib-Asn-Cys]-Tle-Thr-NH2] (X12-[X1]T[Aib][Phe(4-Cl)]C[Lys(Me)][Arg(Me)][Aib]NC[Tle]T-NH2; disulfide 5-10)
Kd [1, 3]: < 0.0126 µM
IC50 [2, 4]: < 0.2 µM

Now from value to molecule:

Kd [1, 6]: < 0.0126 µM
IC50 [2, 7]: < 0.2 µM
SMILES: CNCCCC[C@@H]1NC(=O)[C@@H](NC(=O)[C@H](Cc2ccc(Cl)cc2)NC(=O)C(C)(C)NC(=O)[C@@H](NC(=O)CC2CCN(C(=O)CN3CCN(CC(=O)O)CCN(CC(=O)O)CCN(CC(=O)O)CC3)CC2)[C@@H](C)O)CSSC[C@@H](C(=O)N[C@H](C(=O)N[C@H](C(N)=O)[C@@H](C)O)C(C)(C)C)NC(=O)[C@H](CC(N)=O)NC(=O)C(C)(C)NC(=O)[C@H](CCCNC(=N)N[N+](=O)[O-])NC1=O [PSM-0254, DOTA-Cmp-Thr-Aib-Pcf-[Cys-Lys(Me)-Eew-Aib-Asn-Cys]-Tle-Thr-NH2] ({DOTA}-[X1]T[Aib][Phe(4-Cl)]C[Lys(Me)][Arg(NO2)][Aib]NC[Tle]T-NH2; disulfide 5-10)

Kd [1, 3]: 0.0126 to 0.126 µM
IC50 [2, 4]: < 0.2 µM
SMILES: CC(=O)N[C@H](C(=O)NC(C)(C)C(=O)N[C@@H](CSCc1ccccc1)C(=O)N[C@H]1CSSC[C@@H](C(=O)N[C@H](C(=O)N[C@H](C(N)=O)[C@@H](C)O)C(C)(C)C)NC(=O)[C@H](CC(N)=O)NC(=O)C(C)(C)NC(=O)[C@H](CCCNC(=N)N)NC(=O)[C@H](CCCCN)NC1=O)[C@@H](C)O [PSM-0441, Ac-Thr-Aib-Cys(Bzl)-[Cys-Lys-Arg-Aib-Asn-Cys]-Tle-Thr-NH2] (Ac-T[Aib]C(Bn)CKR[Aib]NC[Tle]T-NH2; disulfide 4-9)

Kd [1, 8]: < 0.0126 µM
IC50 [2, 9]: < 0.2 µM
SMILES: CC(=O)N[C@H](C(=O)NC(C)(C)C(=O)N[C@@H](Cc1ccccc1)C(=O)N[C@H]1CSSC[C@@H](C(=O)N[C@H](C(=O)N[C@H](C(=O)N[C@H](CCCCNC(=O)CN2CCN(CC(=O)O)CCN(CC(=O)O)CCN(CC(=O)O)CC2)C(N)=O)[C@@H](C)O)C(C)(C)C)NC(=O)[C@H](CC(N)=O)NC(=O)C(C)(C)NC(=O)[C@H](CCCNC(=N)N)NC(=O)[C@H](CCCCN)NC1=O)[C@@H](C)O [PSM-0288, Ac-Thr-Aib-Phe-[Cys-Lys-Arg-Aib-Asn-Cys]-Tle-Thr-lys(DOTA)-NH2] (Ac-T[Aib]FCKR[Aib]NC[Tle]T[dK](DOTA)-NH2; disulfide 4-9)

Kd [1, 6]: < 0.0126 µM
IC50 [2, 7]: < 0.2 µM
SMILES: C[C@@H](O)[C@H](NC(=O)CN1CCN(CC(=O)O)CCN(CC(=O)O)CCN(CC(=O)O)CC1)C(=O)NC(C)(C)C(=O)N[C@@H](Cc1ccc(Cl)cc1)C(=O)N[C@H]1CSSC[C@@H](C(=O)N[C@H](C(=O)NCCN)C(C)(C)C)NC(=O)[C@H](CC(N)=O)NC(=O)C(C)(C)NC(=O)[C@H](CCCNC(=N)N)NC(=O)[C@H](CCCCN)NC1=O [PSM-0222, DOTA-Thr-Aib-Pcf-[Cys-Lys-Arg-Aib-Asn-Cys]-Tle-en] ({DOTA}-T[Aib][Phe(4-Cl)]CKR[Aib]NC[Tle]-Ethylenediamine; disulfide 4-9)
